Measurements: US12077503B2, “Substituted cyclic amides and their use as herbicides” (FMC CORPORATION, priority 2015, dated 2024)

Experiments:
Assay in all cases: Test A preemergence
Type in all cases: in vivo
[1] = tested on: Kochia (Kochia scoparia); details: Bassia scoparia, pre-emergence, 240 h, preemergence, read-out: Plant response rating, Kochia; for pest or weed control at 125 g/ha: 125 g ai/ha, visual rating after approx. 10 d, 0 to 100 scale where 0 is no effect and 100 is complete control; for pest or weed control at 500 g/ha: 500 g ai/ha, 0 to 100 scale, 0 = no effect, 100 = complete control
Summary of the method: (§1)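 Compounds were formulated in a non-phytotoxic solvent mixture with surfactant and applied as a preemergence directed soil spray after seeding, or sprayed postemergence over plants 2 to 10 cm tall at the one- to two-leaf stage. Evaluation after about 10 d compared treated with untreated controls, using a scale from 0 (no effect) to 100 (complete control).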

[2] = tested on: barnyardgrass (Echinochloa crus-galli); details: Echinochloa crus-galli, pre-emergence, 240 h, preemergence, read-out: Plant response rating, Barnyardgrass; for pest or weed control at 125 g/ha: 125 g ai/ha, visual rating after approx. 10 d, 0 to 100 scale where 0 is no effect and 100 is complete control; for pest or weed control at 500 g/ha: 500 g ai/ha, 0 to 100 scale, 0 = no effect, 100 = complete control
Summary of the method: as §1

[3] = tested on: giant foxtail (Setaria faberii); details: Setaria faberi, pre-emergence, 240 h, preemergence, read-out: Plant response rating, Foxtail, Giant; for pest or weed control at 125 g/ha: 125 g ai/ha, visual rating after approx. 10 d, 0 to 100 scale where 0 is no effect and 100 is complete control; for pest or weed control at 500 g/ha: 500 g ai/ha, 0 to 100 scale, 0 = no effect, 100 = complete control
Summary of the method: as §1

[4] = tested on: pigweed (Amaranthus retroflexus); details: Amaranthus retroflexus, pre-emergence, 240 h, preemergence, read-out: Plant response rating, Pigweed; for pest or weed control at 125 g/ha: 125 g ai/ha, visual rating after approx. 10 d, 0 to 100 scale where 0 is no effect and 100 is complete control; for pest or weed control at 500 g/ha: 500 g ai/ha, 0 to 100 scale, 0 = no effect, 100 = complete control
[5] = tested on: ragweed (common ragweed, Ambrosia elatior); details: Ambrosia artemisiifolia, pre-emergence, 240 h, preemergence, read-out: Plant response rating, Ragweed; for pest or weed control at 125 g/ha: 125 g ai/ha, visual rating after approx. 10 d, 0 to 100 scale where 0 is no effect and 100 is complete control; for pest or weed control at 500 g/ha: 500 g ai/ha, 0 to 100 scale, 0 = no effect, 100 = complete control
Summary of the method: as §1

[6] = tested on: ryegrass, Italian (Italian ryegrass, Lolium multiflorum); details: Lolium multiflorum, pre-emergence, 240 h, preemergence, read-out: Plant response rating, Ryegrass, Italian; for pest or weed control at 125 g/ha: 125 g ai/ha, visual rating after approx. 10 d, 0 to 100 scale where 0 is no effect and 100 is complete control; for pest or weed control at 500 g/ha: 500 g ai/ha, 0 to 100 scale, 0 = no effect, 100 = complete control
Summary of the method: as §1

SMILES | pest or weed control at 125 g/ha [1] [%] | pest or weed control at 500 g/ha [1] [%] | pest or weed control at 125 g/ha [2] [%] | pest or weed control at 500 g/ha [2] [%] | pest or weed control at 125 g/ha [3] [%] | pest or weed control at 500 g/ha [3] [%] | pest or weed control at 125 g/ha [4] [%] | pest or weed control at 500 g/ha [4] [%] | pest or weed control at 125 g/ha [5] [%] | pest or weed control at 500 g/ha [5] [%] | pest or weed control at 125 g/ha [6] [%] | pest or weed control at 500 g/ha [6] [%]
Cc1ccc([C@H]2CNC(=O)[C@@H]2C(=O)Nc2cccc(F)c2F)c(F)c1 [Compound 720] | 20 | 70 | 90 | 100 | 60 | 90 | 0 | 0 | 0 | 80 | 0 | 20
C=CCN1C[C@H](c2ccc(OC)c(F)c2)[C@@H](C(=O)Nc2cccc(F)c2F)C1=O [Compound 722] | 0 | 0 | 20 | 80 | 50 | 80 | 0 | 0 | 0 | 0 | 0 | 0
C=CCN1C[C@H](c2ccc(OC)c(F)c2)[C@@H](C(=O)Nc2ccccc2S(C)(=O)=O)C1=O [Compound 724] | 0 | 0 | 0 | 0 | 0 | 0 | 0 | 0 | 0 | 0 | 0 | 0
Cc1cc([C@H]2CNC(=O)[C@@H]2C(=O)Nc2ccc(F)cc2F)ccc1Br [Compound 725] | 0 | 50 | 90 | 90 | 90 | 90 | 0 | 0 | 0 | 0 | 0 | 20
Cc1ccc([C@H]2CNC(=O)[C@@H]2C(=O)Nc2cccc(F)c2F)s1 [Compound 729] | 0 | 0 | 0 | 0 | 0 | 0 | 0 | 0 | 0 | 0 | 0 | 0
